Assay results as given in patent US20230242494A1, “MALONITRILE DERIVATIVES” (Hoffmann-La Roche Inc., priority 2020, published 2023).
pIC50: −log10 of the molar value.

These compounds were tested against T1, human cGAS (residues 161-522) (Homo sapiens, UniProt Q8N884) (assay: cGAS Activity Assay—Malachite Green). Details: recombinant purified human cGAS 25 nM; 80 μM ATP, 80 μM GTP, 100 nM ISD; 4 hour at RT; phosphate detection by Malachite Green.
T1 construct: human cGAS (residues 161-522); made in house
T1 sequence (Q8N884 161-522): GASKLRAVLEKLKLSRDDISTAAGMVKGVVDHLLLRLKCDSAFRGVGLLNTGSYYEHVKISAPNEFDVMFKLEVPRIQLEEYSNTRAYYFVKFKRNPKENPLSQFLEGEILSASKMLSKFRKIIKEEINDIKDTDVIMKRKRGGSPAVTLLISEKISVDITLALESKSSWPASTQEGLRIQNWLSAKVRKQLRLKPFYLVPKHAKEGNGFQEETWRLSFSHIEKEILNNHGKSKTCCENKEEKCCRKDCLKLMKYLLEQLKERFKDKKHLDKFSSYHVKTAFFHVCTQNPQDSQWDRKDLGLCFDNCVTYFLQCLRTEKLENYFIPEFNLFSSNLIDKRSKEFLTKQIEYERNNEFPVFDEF
Type: biochemical
Procedure: Compounds were tested for cGAS inhibition in a coupled enzymatic assay based on Phosphate detection by Malachite Green. Final assay conditions were 20 mM TRIS pH 7.5 (Applichem), 5 mM MgCl2 (Sigma) and 0.01% BSA (Sigma) supplemented with 80 μM ATP (Sigma), 80 μM GTP (Sigma) and 100 nM Interferon Stimulating DNA (ISD) (Microsynth). Recombinantly expressed purified human cGAS (residues 161-522) was used at 25 nM.
All compounds were prepared as 10 mM stock solutions in DMSO and a 16 pt dilution series in DMSO with a dilution factor of 2.5 was prepared. 1 μL of DMSO dilution series was transferred to 32.3 μL reaction buffer, mixed by pipetting up/down, spun for 1 minute at 3000 rpm and was visually inspected for precipitation. 5 μL of 3-fold enzyme stock solution were transferred to an empty 384-well Black/Clear Flat Bottom Polystyrene NBS (Corning) rows 3-24. Rows 1-2 were filled with assay buffer. Plates were spun 10 seconds at 1000 rpm (164×g). 5 μL of compound intermediate dilution was added and mixed by pipetting up/down to rows 3-24. Rows 1-2 were filled with 3.1% DMSO assay buffer. Plates were spun 10 seconds at 1000 rpm (164×g). 5 μL 3-fold Nucleotide/DNA mix was added to all wells to start the reaction. Plates were spun 10 seconds at 1000 rpm (164×g) and incubated for 4 hour at room temperature (RT) in the dark. 5 μL 4 U/ml PPase (Sigma) were added to all wells. Plates spun 10 seconds at 1000 rpm (164×g). 10 μL BioMol green Solution (Enzo Life Sciences) was added to all wells. Plates spun 10 seconds at 1000 rpm (164×g) and incubated 30 minutes at RT in the dark. Absorbance data was collected 620 nm on an EnVision Multilable Reader (Perkin Elmer) and the following measurement settings were used: excitation filter photometric was 620 nm; excitation from the top; measurement height was 1 mm; number of flashes was 30; number of flashes integrated was 1.
All plates are checked for abnormalities and outliers in the Blank Control (no protein, row 1) and the Neutral Control (no compound, row 2) are excluded using the 3*SD rule. Data was normalized to 0 and 100% by Blank and Neutral Control and each curve was fitted and judged using the 4 parameter logistic equation to determine the IC50 for cGAS inhibition.
Table 13 provides IC50 values (μM) for cGAS inhibition obtained for particular examples of the present invention as measured by the above-described assay.

Row | pIC50 | Compound
1 | 5.30 | Cc1oncc1/C(O)=C(\C#N)C(=O)Nc1nc(Cl)c(-c2ccccc2)c(NS(=O)(=O)c2ccc(Cl)cc2)n1 [Example 108, (Z)-N-(4-chloro-6-((4-chlorophenyl)sulfonamido)-5-phenylpyrimidin-2-yl)-2-cyano-3-hydroxy-3-(5-methylisoxazol-4-yl)acrylamide]
2 | 6.02 | Cc1oncc1/C(O)=C(\C#N)C(=O)Nc1cccc(CO)c1 [Example 143, (Z)-2-Cyano-3-hydroxy-N-[3-(hydroxymethyl)phenyl]-3-(5-methylisoxazol-4-yl)prop-2-enamide]
3 | 6.77 | COCCN(C)S(=O)(=O)c1ccc(NC(=O)/C(C#N)=C(\O)c2cnoc2C)cc1 [Example 119, (Z)-2-Cyano-3-hydroxy-N-(4-(N-(2-methoxyethyl)-N-methylsulfamoyl)phenyl)-3-(5-methylisoxazol-4-yl)acrylamide]
4 | 6.14 | Cc1oncc1/C(O)=C(\C#N)C(=O)Nc1ccc(S(=O)(=O)Cc2ccccc2Cl)cn1 [Example 109, (Z)—N-(5-((2-chlorobenzyl)sulfonyl)pyridin-2-yl)-2-cyano-3-hydroxy-3-(5-methylisoxazol-4-yl)acrylamide]
5 | 5.79 | Cc1oncc1/C(O)=C(\C#N)C(=O)Nc1ccc(C(F)(F)F)c(C#N)c1 [Example 78, (Z)-2-cyano-N-(3-cyano-4-(trifluoromethyl)phenyl)-3-hydroxy-3-(5-methylisoxazol-4-yl)acrylamide]
6 | 6.17 | Cc1oncc1/C(O)=C(\C#N)C(=O)Nc1ncc(-c2ccccc2)cn1 [Example 81, (Z)-2-cyano-3-hydroxy-3-(5-methylisoxazol-4-yl)-N-(5-phenylpyrimidin-2-yl)acrylamide]
7 | 7.10 | COCCOc1cnc(NC(=O)/C(C#N)=C(\O)c2cnoc2C)nc1 [Example 89, (Z)-2-cyano-3-hydroxy-N-(5-(2-methoxyethoxy)pyrimidin-2-yl)-3-(5-methylisoxazol-4-yl)acrylamide]
8 | 7.70 | Cc1oncc1/C(O)=C(\C#N)C(=O)Nc1ncc(S(=O)(=O)c2ccccc2)cn1 [Example 111, (Z)-N-[5-(benzenesulfonyl)pyrimidin-2-yl]-2-cyano-3-hydroxy-3-(5-methylisoxazol-4-yl)prop-2-enamide]
9 | 5.51 | Cc1oncc1/C(O)=C(\C#N)C(=O)Nc1ccc(C(C)(C)c2ccccc2)cc1 [Example 104, (Z)-2-cyano-3-hydroxy-3-(5-methylisoxazol-4-yl)-N-(4-(2-phenylpropan-2-yl)phenyl)acrylamide]
10 | 7.00 | Cc1oncc1/C(O)=C(\C#N)C(=O)Nc1ccc(S(=O)(=O)c2ccccc2)cn1 [Example 95, (Z)-2-cyano-3-hydroxy-3-(5-methylisoxazol-4-yl)-N-(5-(phenylsulfonyl)pyridin-2-yl)acrylamide]
11 | 6.17 | Cc1oncc1/C(O)=C(\C#N)C(=O)Nc1ccc(S(=O)(=O)N(C)CCN(C)C)cc1 [Example 120, (Z)-2-cyano-N-(4-(N-(2-(dimethylamino)ethyl)-N-methylsulfamoyl)phenyl)-3-hydroxy-3-(5-methylisoxazol-4-yl)acrylamide]
12 | 6.43 | COCCOc1cnc(NC(=O)/C(C#N)=C(\O)c2cnoc2C)nc1CCc1ccccc1 [Example 128, (Z)-2-cyano-3-hydroxy-N-(5-(2-methoxyethoxy)-4-phenethylpyrimidin-2-yl)-3-(5-methylisoxazol-4-yl)acrylamide]
13 | 6.89 | Cc1oncc1/C(O)=C(\C#N)C(=O)Nc1ccc(S(=O)(=O)c2ccccc2C#N)cc1 [Example 122, (Z)-2-cyano-N-(4-((2-cyanophenyl)sulfonyl)phenyl)-3-hydroxy-3-(5-methylisoxazol-4-yl)acrylamide]
14 | 7.22 | Cc1oncc1/C(O)=C(\C#N)C(=O)Nc1ncc(S(C)(=O)=O)c(-c2cccc(F)c2)n1 [Example 137, (Z)-2-cyano-N-(4-(3-fluorophenyl)-5-(methylsulfonyl)pyrimidin-2-yl)-3-hydroxy-3-(5-methylisoxazol-4-yl)acrylamide]
15 | 6.42 | Cc1oncc1/C(O)=C(\C#N)C(=O)Nc1ccc([S+](C)[O-])cc1 (stereo not shown) [Example 116, (Z)-2-cyano-3-hydroxy-3-(5-methylisoxazol-4-yl)-N-(4-methylsulfinylphenyl) prop-2-enamide]

Further lines, the compound ahead of its results:

Row | Compound | pIC50
16 | Cc1oncc1/C(O)=C(\C#N)C(=O)Nc1cccc(-c2ccccc2)c1 [Example 51, (Z)-2-cyano-3-hydroxy-3-(5-methylisoxazol-4-yl)-N-(3-phenylphenyl) prop-2-enamide] | 5.70
17 | Cc1oncc1/C(O)=C(\C#N)C(=O)Nc1ccc(-c2ccccc2)cc1 [Example 64, (Z)-2-cyano-3-hydroxy-3-(5-methylisoxazol-4-yl)-N-(4-phenylphenyl)-prop-2-enamide] | 5.76
18 | Cc1oncc1/C(O)=C(\C#N)C(=O)Nc1ccc(Sc2ccc(Cl)cc2)cc1 [Example 13, (Z)-N-(4-((4-chlorophenyl)thio)phenyl)-2-cyano-3-hydroxy-3-(5-methylisoxazol-4-yl)acrylamide] | 5.46
19 | COc1cnc(NC(=O)/C(C#N)=C(\O)c2cnoc2C)nc1 [Example 46, (Z)-2-cyano-3-hydroxy-N-(5-methoxypyrimidin-2-yl)-3-(5-methylisoxazol-4-yl)prop-2-enamide] | 7.15
20 | Cc1oncc1/C(O)=C(\C#N)C(=O)Nc1ccc(Oc2ccccc2)cc1 [Example 62, (Z)-2-cyano-3-hydroxy-3-(5-methylisoxazol-4-yl)-N-(4-phenoxyphenyl)acrylamide] | 5.81
21 | COC(=O)Cc1ccc(NC(=O)/C(C#N)=C(\O)c2cnoc2C)cc1 [Example 32, methyl 2-[4-[[(Z)-2-cyano-3-hydroxy-3-(5-methylisoxazol-4-yl)prop-2-enoyl]amino]phenyl] acetate] | 6.28
22 | Cc1noc(C)c1N(C(=O)c1cnoc1C)S(=O)(=O)c1ccc(NC(=O)/C(C#N)=C(\O)c2cnoc2C)cc1 [Example 60] | 6.28
23 | Cc1oncc1/C(O)=C(\C#N)C(=O)Nc1ccc(F)cc1 [Example 10, (Z)-2-cyano-N-(4-fluorophenyl)-3-hydroxy-3-(5-methylisoxazol-4-yl)acrylamide] | 5.83
24 | Cc1cc(C(F)(F)F)ccc1NC(=O)/C(C#N)=C(\O)c1cnoc1C [Example 50, (Z)-2-cyano-3-hydroxy-N-(2-methyl-4-(trifluoromethyl)phenyl)-3-(5-methylisoxazol-4-yl)acrylamide] | 5.98
25 | Cc1oncc1/C(O)=C(\C#N)C(=O)Nc1ccc(C(F)(F)F)cn1 [Example 66, (Z)-2-cyano-3-hydroxy-3-(5-methylisoxazol-4-yl)-N-(5-(trifluoromethyl)pyridin-2-yl)acrylamide] | 6.31
26 | Cc1oncc1/C(O)=C(\C#N)C(=O)Nc1ccc(Cc2ccccc2)cc1 [Example 74, (Z)-N-(4-benzylphenyl)-2-cyano-3-hydroxy-3-(5-methylisoxazol-4-yl)acrylamide] | 5.82
27 | Cc1oncc1/C(O)=C(\C#N)C(=O)Nc1ccc(Oc2cccc(C(F)(F)F)c2)cc1 [Example 18, (Z)-2-cyano-3-hydroxy-3-(5-methylisoxazol-4-yl)-N-(4-(3-(trifluoromethyl)phenoxy)phenyl)acrylamide] | 5.43
28 | Cc1cc(C#N)ccc1NC(=O)/C(C#N)=C(\O)c1cnoc1C [Example 22, (Z)-2-cyano-N-(4-cyano-2-methylphenyl)-3-hydroxy-3-(5-methylisoxazol-4-yl)acrylamide] | 6.16
